According to paper PMC4076021 (ACS chemical biology, 2014):
Like-named read-outs stand apart in the source and are kept apart here. Blank lines part the entries; values can stand above or below the molecule they belong to.

How the values were obtained:
GST-LSD1 [1] = target: T1, GST-LSD1 (Homo sapiens, UniProt O60341); test: biochemical; type: biochemical; conditions: for kinact/KI: read-out: kinact/Ki(inact)
GST-LSD1 [2] = target: T1, GST-LSD1; test: MassSQUIRM LSD1 inhibition assay; type: biochemical; conditions: 50 µM inhibitor, 30 min, 215 nM GST-LSD1
H3K4Me2 in LNCaP cells = test: Western blot of histone H3 methylation in LNCaP cells; type: cell-based
H3K4Me2 in H460 cells = test: Western blot of H3K4Me2 in H460 cells; type: cell-based; conditions: H460, 48 h, compared with LNCaP
[3] = system: immature primary cortical neurons; test: Oxidative toxicity; type: cell-based, rat; conditions: 0.5 µM, 5 mM HCA, MTT
H460 cells [4] = system: H460 cells
H460 cells [5] = test: [3H] thymidine incorporation proliferation assay in H460 cells; type: cell-based; conditions: H460, 48 h, 80 µM
GST-LSD1 [6] = target: T1, GST-LSD1; conditions: cited from earlier work
[7] = mechanism-based inactivation, extrapolated to zero substrate

Structure (SMILES): CNNCCc1ccccc1.Cl.Cl [9a]
LSD1 inhibitory action (in words) (GST-LSD1 [1]): negated LSD1 inhibitory action

Structure (SMILES): CN(C)NCCc1ccccc1 [9b]
IC50 (GST-LSD1 [1]): > 100 µM

Structure (SMILES): COc1ccc(CCCNN)cc1.Cl.Cl [9e]
KI (inactivation) (GST-LSD1 [1]): 8 ± 3.5 µM | LSD1 inhibitory action (in words) (GST-LSD1 [1]): made little difference | kinact (GST-LSD1 [1]): 0.0025 s⁻¹ | kinact/KI (GST-LSD1 [1]): 317 M⁻¹ s⁻¹

Structure (SMILES): CNNCCCc1ccc(OC)cc1 [9f]
IC50 (GST-LSD1 [1]): > 100 µM

Structure (SMILES): NNCCOc1ccccc1 [10a]
KI (inactivation) (GST-LSD1 [1]): 44 ± 9.7 µM | kinact (GST-LSD1 [1]): 0.0025 s⁻¹ | kinact/KI (GST-LSD1 [1]): 56.7 M⁻¹ s⁻¹

Structure (SMILES): NNCCCOc1ccccc1 [10b]
KI (inactivation) (GST-LSD1 [1]): 12 ± 2.1 µM | kinact (GST-LSD1 [1]): 0.00367 s⁻¹ | kinact/KI (GST-LSD1 [1]): 300 M⁻¹ s⁻¹

Structure (SMILES): Cl.Cl.NNCCc1ccc(NC(=O)CCCc2ccccc2)cc1 [12d]
LSD1 inhibition in MassSQUIRM assay (in words) (GST-LSD1 [2]): very substantial LSD1 inhibition | H3K4Me2 band density time course (in words) (H3K4Me2 in LNCaP cells; 10 µM, normalized to vehicle, 3 biological replicates): Statistically significant increases were observed at 6, 24, 48, 72, and 96 h but not at 30 min and 12 h | changes in H3K4Me1, H3K4Me3, unmethylated H3K4, H3K9Me2, H3K9Ac, H3K36Me3 (in words) (H3K4Me2 in LNCaP cells; 0.4–10 µM, 48 h): no significant reproducible changes | effect on LSD1 protein levels (in words) (H3K4Me2 in LNCaP cells; 0.4–10 µM, 48 h): no discernible effect | H3K4Me2 band density (in words) (H3K4Me2 in LNCaP cells; 48 h, 3 µM and 10 µM, three biological replicates): Statistically significant increases | effect on H3K4Me2 levels (in words) (H3K4Me2 in H460 cells): comparable dose-response effects | survival of neurons after HCA treatment (in words) [3]: significantly enhanced survival

Structure (SMILES): Cc1[nH]c2ccccc2c1CCNCc1ccc(/C=C/C(=O)NO)cc1 [LBH-589]
combination effect on inhibition of H460 cell proliferation (in words) (H460 cells [4]): additive to synergistic effects

Structure (SMILES): Nc1ccccc1NC(=O)c1ccc(CNc2nccc(-c3cccnc3)n2)cc1 [MGCD0103]
combination effect on inhibition of H460 cell proliferation (in words) (H460 cells [4]): moderate antagonism | combination index (CI) (H460 cells [4]): > 1

Structure (SMILES): Nc1ccccc1NC(=O)c1ccc(CNC(=O)OCc2cccnc2)cc1 [MS-275]
combination effect on inhibition of H460 cell proliferation (in words) (H460 cells [4]): additive to synergistic effects

Structure (SMILES): CC(/C=C/C(=O)NO)=C\[C@@H](C)C(=O)c1ccc(N(C)C)cc1 [TSA]
combination effect on inhibition of H460 cell proliferation (in words) (H460 cells [4]): moderate antagonism | combination index (CI) (H460 cells [4]): > 1

Structure (SMILES): Nc1ncn([C@@H]2O[C@H](CO)[C@@H](O)[C@H]2O)c(=O)n1 [azacytidine]
combination effect on inhibition of H460 cell proliferation (in words) (H460 cells [4]): moderate antagonism

Structure (SMILES): NNCCCN1CCOCC1 [compound 11]
IC50 (GST-LSD1 [1]): > 100 µM | LSD1 inhibitory action (in words) (GST-LSD1 [1]): not compatible with LSD1 inhibition

Structure (SMILES): NNCCc1ccccc1 [phenelzine, reference compound]
LSD1 inhibition in MassSQUIRM assay (in words) (GST-LSD1 [2]): negligible impact on LSD1 inhibition | H3K4Me2 changes (in words) (H3K4Me2 in LNCaP cells; 48 h, concentrations up to 40 µM): did not induce H3K4Me2 changes | reduction in 3H-thymidine incorporation (H460 cells [5]): < 50% | concentration needed to extinguish LSD1 activity under MassSQUIRM conditions (GST-LSD1 [6]): greater than 10 mM

Now from value to molecule, other results behind:

KI (inactivation) (GST-LSD1 [1]): 22 ± 3 µM | kinact (GST-LSD1 [1]): 0.002 s⁻¹ | kinact/KI (GST-LSD1 [1]): 91.7 M⁻¹ s⁻¹
Structure (SMILES): NNCCCCc1ccccc1 [9h]

KI (inactivation) (GST-LSD1 [1]): 0.28 ± 0.11 µM | kinact (GST-LSD1 [1]): 0.00317 s⁻¹ | kinact/KI (GST-LSD1 [1]): 11700 M⁻¹ s⁻¹
Structure (SMILES): NNCCc1ccc(NC(=O)c2ccccc2)cc1 [12a]

KI (inactivation) (GST-LSD1 [1]): 0.37 ± 0.033 µM | kinact (GST-LSD1 [1]): 0.00333 s⁻¹ | kinact/KI (GST-LSD1 [1]): 9000 M⁻¹ s⁻¹
Structure (SMILES): NNCCc1ccc(NC(=O)Cc2ccccc2)cc1 [12b]

kinact (GST-LSD1 [1]): 0.004 s⁻¹ | kinact/KI (GST-LSD1 [1]): 15300 M⁻¹ s⁻¹
Structure (SMILES): NNCCc1ccc(NC(=O)CCc2ccccc2)cc1 [12c]

kinact (GST-LSD1 [1]): 0.00367 s⁻¹ | KI (inactivation) (GST-LSD1 [1]; [7]): 0.26 ± 0.11 µM | kinact/KI (GST-LSD1 [1]): 14300 M⁻¹ s⁻¹
Structure (SMILES): NNCCc1ccc(NC(=O)CCCCc2ccccc2)cc1 [12e]

kinact (GST-LSD1 [1]): 0.00283 s⁻¹ | kinact/KI (GST-LSD1 [1]): 18300 M⁻¹ s⁻¹
Structure (SMILES): NNCCc1ccc(NC(=O)CCCc2ccc(Cl)cc2)cc1 [12f]

kinact (GST-LSD1 [1]): 0.0035 s⁻¹ | kinact/KI (GST-LSD1 [1]): 12300 M⁻¹ s⁻¹
Structure (SMILES): NNCCc1ccc(NC(=O)CCCc2ccc([N+](=O)[O-])cc2)cc1 [12i]

fold weaker LSD1 inhibitor than bizine (GST-LSD1 [1]): ~ 30 fold | kinact (GST-LSD1 [1]): 0.004 s⁻¹ | KI (inactivation) (GST-LSD1 [1]; [7]): 2 ± 0.73 µM | kinact/KI (GST-LSD1 [1]): 2000 M⁻¹ s⁻¹
Structure (SMILES): CN(C(=O)CCCc1ccccc1)c1ccc(CCNN)cc1.O=C(O)C(=O)O [12l]
H3K4Me2 changes (in words) (H3K4Me2 in LNCaP cells; 48 h, concentrations up to 10 µM): did not show changes in H3K4Me2

kinact (GST-LSD1 [1]): 0.00367 s⁻¹ | KI (inactivation) (GST-LSD1 [1]; [7]): 1.6 ± 0.49 µM | kinact/KI (GST-LSD1 [1]): 2330 M⁻¹ s⁻¹
Structure (SMILES): NNCCc1ccc(N(Cc2ccccc2)C(=O)CCCc2ccccc2)cc1 [12m]

kinact (GST-LSD1 [1]): 0.0035 s⁻¹ | kinact/KI (GST-LSD1 [1]): 16700 M⁻¹ s⁻¹
Structure (SMILES): NNCCc1ccc(NC(=O)CCc2c[nH]c3ccccc23)cc1 [15a]

kinact (GST-LSD1 [1]): 0.00283 s⁻¹ | kinact/KI (GST-LSD1 [1]): 28300 M⁻¹ s⁻¹
Structure (SMILES): NNCCc1ccc(NC(=O)/C=C/c2ccccc2)cc1 [compound 13]
